Consider three sequences from patent publication US11413322B2, “Immunotherapy for angiogenic disease” (International Institute of Cancer Immunology, Inc., priority 2014, dated 2022).

“Also recorded” adds a separate entry of the source. Ends that are not written are not given here.

Assay [1] concerns laser-induced choroid coat angiogenesis. Briefly: Mouse model of laser-induced choroid coat angiogenesis, WT1 peptide vaccine (Example 1). Type of assay: in vivo, mouse (C57BL/6J).
Method: Male C57BL/6J mice (provided by CLEA Japan, Inc.) were used. At the beginning of the experiment, the mice were 8 weeks old (body weight: about 20 to 25 g). The mice were free-fed with laboratory chow (manufactured by Oriental Yeast Co., Ltd.) and tap water. Six mice were used for each administration group.
The resultant was diluted to 0.227 or 2.27 mg/mL with sterilized PBS. The resultant WT1 solution and Montanide ISA51 VG were mixed so that the volume ratio was 1:1.27 to prepare emulsions of 0.1 μg/μL, 1 μg/μL, and 10 μg/μL. Each of the emulsions was intracutaneously administered at 10 μL/body. Administered doses were 1 μg/body, 10 μg/body, and 100 μg/body. Timing of administrations were on 15, 22, 29, and 36 days after photocoagulation.
Specifically, with respect to the mice of administration groups (groups 1 to 4) administered with the test substance (WT1 peptide), the administration was carried out through the following procedure.
(1) Grouping was carried out on the basis of area of fluorescence leakage on 14 days after the photocoagulation.
(3) Abdomen was shaved with hair clippers, and then intracutaneous administration was carried out using a 30 G injection needle.
(3) Photocoagulation was carried out using Multi Color Laser Photocoagulator (red) (manufactured by NIDEK CO., LTD.) under the following coagulation conditions: spot size of 50 μm, output of 60 mW, and coagulation time of 0.1 second. […]
(2) Dilatation of pupils was carried out with Mydrin-P, and then general anesthesia was performed by intramuscular administration at 1 mL/kg of a mixture of Ketalar injection (manufactured by DAIICHI SANKYO COMPANY, LIMITED) and Celactal injection (manufactured by Bayer) (7:1). (3) Fluorescite (Manufactured by Alcon, Inc.) was injected at 0.1 mL/kg via the tail vein, and then fluorescence ocular fundus angiography was carried out using Micron III. (4) An area of fluorescence leakage was calculated using an image analysis software. […]
Assay [2] concerns choroidal neovascular area. As to the kind of experiment: Mouse laser-induced choroidal neovascularization, WT1235m and WT1332 (Example 2). The conditions noted are these: 200 μg/body intracutaneous, 4 administrations, FIG. 5; for choroidal neovascular area compared to PBS administration group: time course 2 to 6 weeks. Type of assay: in vivo, mouse (CBF-1). The method, then:
Two species of WT1 peptides: WT1235m ([…](SEQ ID NO: 19)) and WT1332 ([…](SEQ ID NO: 32)) were used as test substances, and following setting of administration groups were provided to conduct an experiment in the same method and procedure as Example 1. The WT1235m was a peptide in which methionine in position 2 of WT1235 (SEQ ID NO: 9) was replaced with tyrosine.
Fluorescence ocular fundus angiography was carried out at 2 weeks, 3 weeks, 4 weeks, 5 weeks, and 6 weeks after the photocoagulation to analyze time-dependent change of choroidal neovascular area. […] In WT1332 administration group, choroidal neovascular area at 6 weeks after the photocoagulation was reduced to about 70% of choroidal neovascular area at 2 weeks after the photocoagulation.

Turning to APVLDFAPPGASAYGSLG [WT135, WT1 peptide], the “choroidal neovascular area at 6 weeks after the photocoagulation relative to area at 2 weeks after the photocoagulation” value in assay [1] (WT135 group, dose not specified (1, 10, 100 μg/body applied), intracutaneous, FIG. 4) is listed as “about 50%”. In addition, in assay [1] (any applied dose of 1, 10 and 100 μg/body intracutaneous, time course 2 to 6 weeks, FIG. 3, FIG. 4), the “choroidal neovascular area, change with administration (vs PBS administration group)” value was “Decrease in choroidal neovascular area; also recorded: decreasing trend”.

In the case of CYTWNQMNL [WT1235m], the “choroidal neovascular area at 6 weeks after the photocoagulation compared with 2 weeks (in words)” value in assay [2] (CBF-1 mice) is given as “the same as that at 2 weeks after the photocoagulation”. Besides, the “choroidal neovascular area compared to PBS administration group” value in assay [2] is “Decrease in choroidal neovascular area”.

For KRYFKLSHLQMHSRKH [WT1332, WT1 peptide], in assay [2] (CBF-1 mice), the “choroidal neovascular area at 6 weeks after the photocoagulation relative to area at 2 weeks after the photocoagulation” value was “about 70%”. The “choroidal neovascular area compared to PBS administration group” value in assay [2] is “Decrease in choroidal neovascular area”.
